Experimental data: patent publication US11932633B2, “KRas G12C inhibitors” (Mirati Therapeutics, Inc., priority 2018, dated 2024)

What was measured:
KRas G12C [1] = biological target: T1, KRas G12C (Homo sapiens, UniProt P01116, C118S/C51S/C80L/G12C); assay: KRas G12C Modification Assay (LCMS detection of covalent adduct); format: binding; settings: 5 μM concentration for 3 hours
T1 construct: GDP-loaded K-Ras (1-169) G12C, C51S, C80L, C118S
Protocol: This Example illustrates that exemplary compounds of the present invention covalently bind to KRas G12C using a LCMS assay to detect a covalent adduct of the exemplary compound and KRAS G12C.
The protein concentration of GDP-loaded K-Ras (1-169) G12C, C51S, C80L, C118S and GTP-loaded K-Ras (1-169) G12C, C51S, C80L, C118S, Q61H was adjusted to 2 μM in K-Ras Assay Buffer (25 mM HEPES, 150 mM NaCl, 5 mM MgCl2, and 10 mM Octyl β-glucopyranoside at pH 7.5). A 10 μL aliquot of each protein solution was transferred to a 384 well microtiter plate. Initial compound stocks were generated at fifty times their desired final assay concentration in DMSO.
Exemplary compounds of formula (I) were diluted 25-fold into K-Ras Assay Buffer to a final of two times their final concentration. A 10 μL aliquot of each diluted compound solution was added to each of the protein solutions in the microtiter plate to initiate reaction. Typical final compound concentrations were 3.0, 5.0 and 25.0 μM. At each time point, the reactions were quenched with 20 μL of a 25 mM acetic acid solution. Usual assay endpoints were 15, 180 and 1440 minutes. Once all reactions were quenched, the plates were heat sealed and the samples were injected into a LC/MS system for data acquisition.
Data collection took place on an Agilent 6520 Q-TOF Accurate Mass Spectrometer. Samples were injected in their liquid phase onto a C-3 reverse phase column to remove assay buffer and prepare the samples for mass spectrometer. The proteins were eluted from the column using an acetonitrile gradient and fed directly into the mass analyzer. Initial raw data analysis took place in Agilent MassHunter software immediately post data acquisition.
Raw data analysis of the intact protein was exclusively a deconvolution of the multiple charge states of each protein in solution using a maximum entropy deconvolution provided in Mass Hunter. To minimize complexity, only the data over limited mass ranges were considered for analysis, with a minimum of one Dalton mass step intervals. The heights of all masses identified during raw data analysis were exported to be further analyzed in Spotfire® data analysis software.
Final data analysis was a multistep process in the Spotfire® data analysis software package. Briefly, each protein mass was calculated as a percent of the total signal of that sample, that percentage was normalized to the percentage of signal of the protein in the absence of reactive compounds. Those normalized signals were reported as normalized percent of control (POC). […] Key: N.D. is not determined.

KRas G12C [2] = biological target: T2, KRas G12C (Homo sapiens, UniProt P01116, G12C); assay: Cellular inhibition of KRas G12C measured by Phospho-ERK in NCI-11358 cells; format: cell-based; settings: NCI-11358 cells (ATCC CRL-5807), 3 hours; read-out: Inhibition (IC50, pERK (Thr202/Tyr204) signal normalized with GAPDH)
T2 construct: NCI-11358 cells (ATCC CRL-5807) express KRas G12C; host or cells: NCI-H358
Protocol: The cellular inhibition of KRAs G12C by exemplary compounds of the present invention was determined by measuring the amount of a downstream marker of KRas activity, phosphorylated ERK (“Phospho-ERK”).
NCI-11358 cells (ATCC CRL-5807) express KRas G12C and were grown in RPMI medium supplemented with 10% fetal bovine serum, penicillin/streptomycin and 10 mM HEPES. Cells were plated in poly-D-Lysine coated 96-well plates at a concentration of 50,000 cells/well and allowed to attach for 8-12 hours. Diluted compounds were then added at a final concentration of 0.5% DMSO. After 3 hours, the medium was removed, 150 μL of 4% formaldehyde was added and the plates were incubated for 20 minutes. The plates were washed with PBS, and permeabilized using 150 μL of ice cold 100% methanol for 10 minutes. Non-specific antibody binding to the plates was blocked using 100 μL Licor Blocking Buffer (Li-Cor Biotechnology, Lincoln NE) for 1 hour at room temperature. Positive control samples and samples lacking cells were parallel processed with test samples as standards.
The amount Phospho-ERK was determined using an antibody specific for the phosphorylated form of ERK and compared to the amount of GAPDH. Primary antibodies used for detection were added as follows: Phospho-ERK (Cell Signaling cs9101) diluted 1:500 and GAPDH (Millipore MAB374) diluted 1:5000 in Licor block+0.05% Tween 20. The plates were incubated for 2 hours at room temperature. The plates were washed with PBS+0.05% Tween 20.
Secondary antibodies used to visualize primary antibodies were added as follows: Anti-rabbit-680 diluted 1:1000 and Anti-mouse-800 diluted 1:1000 in Licor Block+0.05% Tween 20 and incubated for 1 hour at room temperature. The plates were washed with PBS+0.05% Tween 20. A 100 μL aliquot of PBS was added to each well and the plates were read on a LICOR AERIUS plate reader.
The pERK (Thr202/Tyr204) signal was normalized with the GAPDH signal and percent of DMSO control values were calculated. IC50 values were generated using a 4 parameter fit of the dose response curve. Key: “A”: ≤1 μM, “B”>1 μM and N.D.=not determined.

SMILES | POC (normalized percent of control, covalent modification of KRas G12C) (KRas G12C [1]) | IC50 (KRas G12C [2]) [µM]
C=CC(=O)N1CC(CN2C(=O)[C@H](CCN3CCOCC3)Oc3cc(-c4cc(O)cc5ccccc45)c(Cl)cc32)C1 [Example 34, (S)-4-((1-acryloylazetidin-3-yl)methyl)-6-chloro-7-(3-hydroxynaphthalen-1-yl)-2-(2-morpholinoethyl)-2H-benzo[b][1,4]oxazin-3(4H)-one] | 93% of control | ≤ 1
C=CC(=O)N1CC(CN2C(=O)COc3cc(-c4ccccc4C(F)(F)F)c(Cl)cc32)C1 [Example 37, 4-((1-acryloylazetidin-3-yl)methyl)-6-chloro-7-(2-(trifluoromethyl)phenyl)-2H-benzo[b][1,4]oxazin-3(4H)-one] | 66% of control | > 1
C=CC(=O)N1CC(CN2C(=O)COc3cc(-c4[nH]nc(C)c4C)c(Cl)cc32)C1 [Example 38, 6-chloro-7-(3,4-dimethyl-1H-pyrazol-5-yl)-4-[(1-prop-2-enoylazetidin-3-yl)methyl]-1,4-benzoxazin-3-one] | 72% of control | > 1
